The results in this text go back to patent US20130231346A1, “METHODS OF TREATING CANCER” (GLAXOSMITHKLINE INTELLECTUAL PROPERTY (NO.2) LIMITED, priority 2010, published 2013).

Assay [1] has as its system RAS-mutant NSCLC cell lines. In words: Inhibition of cell growth (CellTiter-Glo) in panel of RAS-mutant NSCLC cell lines. Conditions: for Response Rate (sensitivity/total lines tested), Cell growth inhibition: Ras mut NSCLC cell lines, CellTiter-Glo, 72 hours of treatment; for Single agent activity (in words): agent alone, cell growth inhibition and apoptosis.
Experimental: Cells are plated in 384-well plates at 500 cells/well in culture media appropriate for each cell type, supplemented with 10% FBS and 1% penicillin/streptomycin, and incubated overnight at 37° C., 5% CO2. Cells are treated in a grid manner with dilution of Compound A^2 (20 dilutions, including no compound, of 2-fold dilutions starting from 1-20 μM depending of compound) from left to right on 384-well plate and also treated with Compound B^2 (20 dilutions, including no compound, of 2-fold dilutions starting from 1-20 μM depending of compound) from top to bottom on 384-well plate and incubated as above for a further 72 hours. In some instances compounds are added in a staggered manner and incubation time can be extended up to 7 days. Cell growth is measured using CellTiter-Glo® reagent according to the manufacturer's protocol and signals are read on a PerkinElmer EnVision™ reader set for luminescence mode with a 0.5-second read.
Results are expressed as a percentage of the t=0 value and plotted against compound(s) concentration. The t=0 value is normalized to 100% and represents the number of cells present at the time of compound addition. The cellular response is determined for each compound and/or compound combination using a 4- or 6-parameter curve fit of cell viability against concentration using the IDBS XLfit plug-in for Microsoft Excel software and determining the concentration required for 50% inhibition of cell growth (gIC50). Background correction is made by subtraction of values from wells containing no cells.
(§1) A panel of 24 non-small cell lung carcinoma (NSCLC) cell lines harboring RAS mutations was analyzed for genomic alterations, gene expression profiling and protein phosphorylation in MAPK and PI3K pathways. Inhibition of cell growth and induction of apoptosis were determined by CellTiter-Glo® and caspase 3/7 activation assays after 72 and 24 hours of treatment, respectively.
Assay [2] concerns RAS-mutant NSCLC cell lines. The assay can be described thus: Induction of apoptosis (caspase 3/7 activation) in panel of RAS-mutant NSCLC cell lines. The class given is cell-based. The following applies: for Response Rate (sensitivity/total lines tested), Cell Apoptosis (capsase 3/7): Ras mut NSCLC cell lines, caspase 3/7 activation, 24 hours of treatment.
Experimental: as §1

Regarding `Nc1nc2[nH]cc(CCc3ccc(C(=O)N[C@@H](CCC(=O)O)C(=O)O)cc3)c2c(=O)[nH]1` [Pemtrexed], in assay [1], the “Response Rate (sensitivity/total lines tested), Cell growth inhibition” value is 38% (4/9).
“dihydroxy-12-[(2R)-1-[(1S,3R,4R)-4-(2-hydroxyethoxy)-3-methoxycyclohexyl]propan-2-yl]-19,30-dimethoxy-15,17,21,23,29,35-hexamethyl-11,36-dioxa-4-azatricyclo[30.3.1.0^4.9]hexatriaconta-16,24,26,28-tetraene-2,3,10,14,20-pentone [Everolimus]”: the “Response Rate (sensitivity/total lines tested), Cell Apoptosis (capsase 3/7)” value in assay [2] is given as 0% (0/24). The “Single agent activity (in words)” value in assay [1] (RAS-mutant NSCLC lines) is “little or no activity”. For the same molecule, in assay [1], the “Response Rate (sensitivity/total lines tested), Cell growth inhibition” value is 8% (2/24).
With `Cc1nc(Nc2ncc(C(=O)Nc3c(C)cccc3Cl)s2)cc(N2CCN(CCO)CC2)n1` [Dasatinib], in assay [2], the “Response Rate (sensitivity/total lines tested), Cell Apoptosis (capsase 3/7)” value is recorded as 0% (0/10). Also, in assay [1], the “Response Rate (sensitivity/total lines tested), Cell growth inhibition” value is 20% (2/10).
Consider `COc1ncc(-c2ccc3nccc(-c4ccnnc4)c3c2)cc1NS(=O)(=O)c1ccc(F)cc1F` [PI3k/mTOR inhibitor, 2,4-difluoro-N-{2-(methyloxy)-5-[4-(4-pyridazinyl)-6-quinolinyl]-3-pyridinyl}benzenesulfonamide], for which, in assay [2] (RAS-mutant NSCLC lines, single agent), the “Apoptosis (in words)” value was “little apoptosis”. In assay [2], the “Response Rate (sensitivity/total lines tested), Cell Apoptosis (capsase 3/7)” value is on record as 6% (1/16). Further, the “Cell growth inhibition (in words)” value in assay [1] (RAS-mutant NSCLC lines) was “potently inhibited cell growth”. For the same molecule, the “Response Rate (sensitivity/total lines tested), Cell growth inhibition” value in assay [1] is reported as 69% (9/13).
For the molecule `Cn1ncc(Cl)c1-c1cc(C(=O)N[C@H](CN)Cc2cccc(F)c2)sc1Cl` [AKT inhibitor, N-{(1S)-2-amino-1-[(3-fluorophenyl)methyl]ethyl}-5-chloro-4-(4-chloro-1-methyl-1H-pyrazol-5-yl)-2-thiophenecarboxamide], in assay [2], the “Response Rate (sensitivity/total lines tested), Cell Apoptosis (capsase 3/7)” value is listed as 0% (0/9). The “Single agent activity (in words)” value in assay [1] (RAS-mutant NSCLC lines) is “little or no activity”. Also, in assay [1], the “Response Rate (sensitivity/total lines tested), Cell growth inhibition” value was 6% (1/18).
On the same counts, the results for `C#Cc1cccc(Nc2ncnc3cc(OCCOC)c(OCCOC)cc23)c1` [Erlotinib] are 0% (0/24), “little or no activity” and 0% (0/24).
